In article PMC9105976, “A Novel β-Hairpin Peptide Z-d14CFR Enhances Multidrug-Resistant Bacterial Clearance in a Murine Model of Mastitis” (International Journal of Molecular Sciences, 2022):
Converted amounts (≈) assume the structure as drawn. Where two headings read alike, the source gives them in different places. Positions of bridges follow the written chain, without caps; N, C: chain ends. Residues, ends and D or L forms follow the SMILES beside them.

Key:
MRSA ATCC33591 = assay: MIC/MBC, microdilution broth method; format: cell-based, S. aureus; details: for MBC: MRSA ATCC33591, kills 99.9% bacteria, NA = no activity at 1 mg/mL
Method: (§1) The MIC of peptides against bacteria was carried out by the microdilution broth method. The bacterial culture (OD 600 = 0.6) was diluted in 10 mM PBS to 1 × 10^6 CFU/mL. The bacterial suspension (100 μL) was added to 96-well plates, and the same volume of peptides, ampicillin or gentamicin (concentrations ranging from 0.001 to 2 mg/mL) were then added to the same 96-well plates, respectively.

[1] = tested on: Bacillus cereus CAU 202020; assay: MIC/MBC, microdilution broth method; format: cell-based; details: for MIC: Bacillus cereus, CAU202020, 18 h, read-out: MIC; for MBC: CAU202020, Bacillus cereus CAU 202020 (MDR isolate), kills 99.9% bacteria, NA = no activity at 1 mg/mL, read-out: MBC
Method: as §1

[2] = tested on: Escherichia coli CAU 201919; assay: MIC/MBC, microdilution broth method; format: cell-based; details: for MBC: CAU201919, Escherichia coli CAU 201919 (MDR isolate), kills 99.9% bacteria, NA = no activity at 1 mg/mL, read-out: MBC; for MIC: Escherichia coli, CAU201919, 18 h, read-out: MIC
Method: as §1

[3] = tested on: Staphylococcus haemolyticus CAU202078; assay: MIC/MBC, microdilution broth method; format: cell-based; details: for MBC: Staphylococcus haemolyticus CAU202078 (MDR isolate), kills 99.9% bacteria, NA = no activity at 1 mg/mL, read-out: MBC; for MIC: Staphylococcus haemolyticus, CAU202078, 18 h, read-out: MIC
Method: as §1

[4] = tested on: Staphylococcus aureus ATCC29213; assay: MIC/MBC, microdilution broth method; format: cell-based; details: for MBC: Staphylococcus aureus ATCC29213, kills 99.9% bacteria, NA = no activity at 1 mg/mL, read-out: MBC; for MIC: Staphylococcus aureus, ATCC29213, 18 h, read-out: MIC
Method: as §1

[5] = tested on: Streptococcus suis CVCC3307; assay: MIC/MBC, microdilution broth method; format: cell-based; details: for MBC: kills 99.9% bacteria, NA = no activity at 1 mg/mL
Method: as §1

[6] = tested on: Escherichia coli CAU 201920; assay: MIC/MBC, microdilution broth method; format: cell-based; details: for MBC: CAU201920, Escherichia coli CAU 201920 (MDR isolate), kills 99.9% bacteria, NA = no activity at 1 mg/mL, read-out: MBC; for MIC: Escherichia coli, CAU201920, 18 h, read-out: MIC
Method: as §1

[7] = tested on: Escherichia coli ATCC25922; assay: MIC/MBC, microdilution broth method; format: cell-based; details: for MBC: Escherichia coli ATCC25922, minimum concentration which kills 99.9% bacteria, NA = no activity at 1 mg/mL, read-out: MBC; for MIC: Escherichia coli, ATCC25922, 18 h, read-out: MIC
Method: as §1

[8] = tested on: Proteus vulgaris CVCC1971; assay: MIC/MBC, microdilution broth method; format: cell-based; details: for MBC: kills 99.9% bacteria, NA = no activity at 1 mg/mL
Method: as §1

[9] = tested on: Salmonella typhimurium ATCC14028; assay: MIC/MBC, microdilution broth method; format: cell-based; details: Salmonella enterica; for MIC: 18 h, read-out: MIC; for MBC: Salmonella typhimurium ATCC14028, kills 99.9% bacteria, NA = no activity at 1 mg/mL, read-out: MBC
Method: as §1

[10] = tested on: Escherichia coli CVCC1450; assay: MIC/MBC, microdilution broth method; format: cell-based; details: for MBC: Escherichia coli CVCC1450, minimum concentration which kills 99.9% bacteria, NA = no activity at 1 mg/mL, read-out: MBC; for MIC: Escherichia coli, CVCC1450, 18 h, read-out: MIC
Method: as §1

[11] = tested on: Klebsiella pneumoniae CAU202084; assay: MIC/MBC, microdilution broth method; format: cell-based; details: for MBC: kills 99.9% bacteria, NA = no activity at 1 mg/mL
Method: as §1

E. coli CAU201919 = assay: Murine model of mastitis induced by MDR E. coli; format: in vivo, mice; details: Z-d14CFR 25 μg or gentamicin 10 μg via milk duct at 3 h and 15 h, 27 h post-infection
Source text: In this study, the therapeutic effects of Z-d14CFR on MDR bacterial infection in vivo was verified by a murine mastitis model. E. coli CAU201919 was used to establish the mastitis model because it is highly pathogenic compared with other bacteria and is resistant to various antibiotics, such as ampicillin, amoxicillin and cefazolin. In brief, 45 Crl:CD1 female mice at 17–18 days of gestation were purchased from Beijing Vital River Laboratory Animal Technology Co., Ltd. (Beijing, China) and kept in the Laboratory Animal Center of China Agricultural University (Beijing, China). At 72 h post-partum, the mice were randomly divided into 5 groups (n = 9 per group) and the offspring were removed 3 h before of administration. The mice were anesthetized by Zoletil 50 (55 mg/kg body weight, WK001, Virbac, France) and held under the stereoscope in a supine position. Mice in the saline group and Z-d14CFR group were intraductal inoculated with 50 μL normal saline or 50 μL Z-d14CFR (25 μg each teat) alone to the milk duct. Mice in other groups were inoculated with 25 μL (1 × 10^5 CFU) E. coli CAU201919 suspension to the milk duct, and after 3 h of E. coli challenged, mice were treated with 25 μL saline, Z-d14CFR (25 μg) or gentamicin (10 μg), respectively, via milk duct injection. Then the mice were given the same treatment after 15 h of E. coli challenged. After 27 h of E. coli challenged, all mice were euthanized. The mammary gland tissues were collected to carry out bacterial count, histopathological examination and inflammatory factors examination.

E. coli ATCC25922 = assay: Time-killing assay; format: cell-based; details: 2 MIC, CFU counts at 0-24 h; for time to kill bacteria in the logarithmic phase: 1 × 10^6 CFU/mL
Method: (§2) E. coli ATCC25922 and S. aureus ATCC29213 in the mid-logarithmic phase were diluted into 1 × 10^6 CFU/mL with 10 mM PBS, and incubated with 10 μL Z-d14CFR in a final concentration of 2 MIC. At 0, 4, 8, 12, 16, 20, and 24 h, the mixture was serial diluted and spread onto LB agar plates. After 16 h of cultivation, the CFU number of bacteria was counted to evaluate the ability of peptide to kill bacteria. The bacteria treated with 10 mM PBS as a negative control, and meanwhile incubated with 2 MIC gentamicin or polymyxin B as a positive control.

S. aureus ATCC29213 = assay: Time-killing assay; format: cell-based; details: 2 MIC, CFU counts at 0-24 h; for time to kill bacteria in the logarithmic phase: 1 × 10^6 CFU/mL
Method: as §2

[12] = Retention time of peptide in HPLC (hydrophobicity); format: physicochemical; details: used as measure of hydrophobicity (order Z-d14CR > Z-d14CF > Z-d13 > Z-d14CFR > Z-d14C); column and gradient not given
[13] = Staphylococcus aureus, 18 h, read-out: MIC
[14] = Staphylococcus aureus, read-out: MBC
[15] = Streptococcus suis CVCC3307, read-out: MBC
[16] = Streptococcus suis, CVCC3307, 18 h, read-out: MIC
[17] = Proteus vulgaris CVCC1971, read-out: MBC
[18] = Proteus vulgaris, CVCC1971, 18 h, read-out: MIC
[19] = Klebsiella pneumoniae CAU202084 (MDR isolate), read-out: MBC
[20] = Klebsiella pneumoniae, CAU202084, 18 h, read-out: MIC

Molecule	MIC (MRSA ATCC33591; [13]) [µg/mL]	MBC (MRSA ATCC33591; [14]) [µg/mL]	MIC [1] [µg/mL]	MBC [1] [µg/mL]	MBC [2] [µg/mL]	MIC [2] [µg/mL]	MBC [3] [µg/mL]	MIC [3] [µg/mL]	MBC [4] [µg/mL]	MIC [4] [µg/mL]	MBC [5, 15] [µg/mL]	MIC [5, 16] [µg/mL]	MBC [6] [µg/mL]	MIC [6] [µg/mL]	MBC [7] [µg/mL]	MIC [7] [µg/mL]	MBC [8, 17] [µg/mL]	MIC [8, 18] [µg/mL]	MIC [9] [µg/mL]	MBC [9] [µg/mL]	further results
CC1(C)S[C@@H]2[C@H](NC(=O)[C@H](N)c3ccccc3)C(=O)N2[C@H]1C(=O)O [Ampicillin, reference compound]	> 1000	> 1000	> 1000	> 1000	> 1000	> 1000	> 1000	> 1000	4 (≈ 11.4 µM)	2 (≈ 5.72 µM)	2 (≈ 5.72 µM)	1 (≈ 2.86 µM)	> 1000	> 1000	16 (≈ 45.8 µM)	4 (≈ 11.4 µM)	> 1000	> 1000	4 (≈ 11.4 µM)	8 (≈ 22.9 µM)	MBC [10]: 32 µg/mL (≈ 91.6 µM); MIC [10]: 8 µg/mL (≈ 22.9 µM); MBC [11, 19]: > 1000 µg/mL; MIC [11, 20]: > 1000 µg/mL
CNC(C)C1CCC(N)C(OC2C(N)CC(N)C(OC3OCC(C)(O)C(NC)C3O)C2O)O1 (stereo not drawn) [Gentamicin, reference compound]	4 (≈ 8.38 µM)	16 (≈ 33.5 µM)	4 (≈ 8.38 µM)	32 (≈ 67 µM)	40 (≈ 83.8 µM)	40 (≈ 83.8 µM)	4 (≈ 8.38 µM)	4 (≈ 8.38 µM)	4 (≈ 8.38 µM)	4 (≈ 8.38 µM)	8 (≈ 16.8 µM)	4 (≈ 8.38 µM)	80 (≈ 168 µM)	80 (≈ 168 µM)	4 (≈ 8.38 µM)	4 (≈ 8.38 µM)	4 (≈ 8.38 µM)	1 (≈ 2.09 µM)	2 (≈ 4.19 µM)	2 (≈ 4.19 µM)	MBC [10]: 4 µg/mL (≈ 8.38 µM); MIC [10]: 2 µg/mL (≈ 4.19 µM); MBC [11, 19]: 4 µg/mL (≈ 8.38 µM); MIC [11, 20]: 1 µg/mL (≈ 2.09 µM); bacterial burden in the mammary gland (E. coli CAU201919; Crl:CD1 mice, 1 × 10^5 CFU E. coli CAU201919 intraductal, infected only about 3.71 × 10^9, p < 0.001): 3.13 × 10^8 CFU/g tissue; histopathologic damage of the mammary gland (acinar wall thickening, neutrophils infiltration) (E. coli CAU201919): obviously ameliorated; increase in IL-1β mRNA expression in the mammary gland (E. coli CAU201919; p < 0.001): attenuated; increase in TNF-α mRNA expression in the mammary gland (E. coli CAU201919; p < 0.001): attenuated; time to kill bacteria in the logarithmic phase (E. coli ATCC25922): ≤ 8 h; time to kill bacteria in the plateau (E. coli ATCC25922): ≤ 12 h; time to kill bacteria in the logarithmic phase (S. aureus ATCC29213): ≤ 8 h; time to kill bacteria in the plateau (S. aureus ATCC29213): ≤ 12 h
CC(C)[C@@H]1NC(=O)[C@@H]2CSSC[C@H](NC(=O)[C@H](Cc3ccc(O)cc3)NC(=O)[C@@H](NC(=O)CNC(=O)[C@@H](N)CCCNC(=N)N)CSSC[C@@H](C(=O)N[C@@H](CCCNC(=N)N)C(N)=O)NC1=O)C(=O)N[C@@H](CC(N)=O)C(=O)N[C@@H](CO)C(=O)N[C@@H](CCCCN)C(=O)N[C@@H](CO)C(=O)N[C@@H](Cc1ccccc1)C(=O)N2 [Z-d14CF] (H-RGCYCNSKSFCVCR-NH2; disulfide 3-13, 5-11; N-terminus assumed)	–	–	–	–	–	–	–	–	–	–	–	–	–	–	–	–	–	–	–	–	MIC (MRSA ATCC33591; MRSA (methicillin-resistant S. aureus) ATCC33591, 1 × 10^6 CFU/mL, 18 h at 37 °C, NA = no antimicrobial activity at 1 mg/mL): NA (NA) (No antimicrobial activity at 1 mg/mL); MBC (MRSA ATCC33591): NA (NA) (No antimicrobial activity at 1 mg/mL); MIC ([5]; Streptococcus suis CVCC3307, 1 × 10^6 CFU/mL, 18 h at 37 °C, NA = no antimicrobial activity at 1 mg/mL): NA (NA) (No antimicrobial activity at 1 mg/mL); MBC ([5]; Streptococcus suis CVCC3307): NA (NA) (No antimicrobial activity at 1 mg/mL); MIC ([8]; Proteus vulgaris CVCC1971, 1 × 10^6 CFU/mL, 18 h at 37 °C, NA = no antimicrobial activity at 1 mg/mL): NA (NA) (No antimicrobial activity at 1 mg/mL); MBC ([8]; Proteus vulgaris CVCC1971): NA (NA) (No antimicrobial activity at 1 mg/mL); MIC ([11]; Klebsiella pneumoniae CAU202084 (MDR isolate), 1 × 10^6 CFU/mL, 18 h at 37 °C, NA = no antimicrobial activity at 1 mg/mL): NA (NA) (No antimicrobial activity at 1 mg/mL); MBC ([11]; Klebsiella pneumoniae CAU202084 (MDR isolate)): NA (NA) (No antimicrobial activity at 1 mg/mL); RT, retention time of peptide in HPLC [12]: 9.538 min
polymyxin B	–	–	–	–	–	–	–	–	–	–	–	–	–	–	–	–	–	–	–	–	time to kill bacteria in the logarithmic phase (E. coli ATCC25922): ≤ 4 h; time to kill bacteria in the plateau (E. coli ATCC25922): ≤ 12 h; time to kill bacteria in the logarithmic phase (S. aureus ATCC29213): ≤ 4 h; time to kill bacteria in the plateau (S. aureus ATCC29213): ≤ 12 h
